Reference: patent US4704396A, “Phenacyl esters of 1-substituted-6-(substituted and unsubstituted) dihydrolysergic acids useful as 5HT receptor antagonists” (Eli Lilly and Company, priority 1985, dated 1987)
Where a name gives a salt, the structure may show the parent alone.

target: T1, 5HT2 receptors (Rattus norvegicus, UniProt P14842); test: Apparent dissociation constants (KB) against serotonin contraction in rat jugular vein; format: cell-based; details: serotonin agonist, antagonist incubated one hour, read-out: 5HT2 -Log Kb ± S.E. (converted)
T1 construct: from tissue; host or cells: external jugular vein of male Wistar rats
T1 sequence (P14842 whole entry): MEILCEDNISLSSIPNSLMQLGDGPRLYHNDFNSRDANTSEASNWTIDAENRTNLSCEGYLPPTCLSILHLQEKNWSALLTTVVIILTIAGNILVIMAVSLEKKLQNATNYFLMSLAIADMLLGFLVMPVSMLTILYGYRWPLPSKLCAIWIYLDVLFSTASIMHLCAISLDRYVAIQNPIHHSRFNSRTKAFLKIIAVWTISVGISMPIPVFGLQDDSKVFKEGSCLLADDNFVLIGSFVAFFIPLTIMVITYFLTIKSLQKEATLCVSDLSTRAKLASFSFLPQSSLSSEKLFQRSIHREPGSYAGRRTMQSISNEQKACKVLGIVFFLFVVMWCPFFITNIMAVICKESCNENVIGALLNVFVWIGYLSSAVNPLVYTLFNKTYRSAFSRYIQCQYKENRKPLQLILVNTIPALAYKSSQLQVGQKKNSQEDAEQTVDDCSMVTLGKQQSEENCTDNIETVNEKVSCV
Method: An initial optimum resting force of 1 and 4 g was applied to the jugular veins and aorta, respectively. […] Exp. Ther., 205, 400 (1978). Alpha receptor antagonist activity was evaluated in the aorta.

| SMILES | Kb [nM] |
| --- | --- |
| CC(C)n1cc2c3c(cccc31)[C@H]1C[C@@H](C(=O)OCC(=O)c3ccccc3)CN(C)[C@@H]1C2 [R^3=H R^4=H R^10=H maleate.H2 O, phenacyl 1-isopropyl-9,10-dihydrolysergate maleate monohydrate] | 15.1 |
| CC(OC(=O)[C@@H]1C[C@@H]2c3cccc4c3c(cn4C(C)C)C[C@H]2N(C)C1)C(=O)c1ccc(O)cc1 (stereo partly drawn) [R^3=CH3 R^4=H R^10=p-OH maleate, α-Methyl-p-hydroxyphenacyl 1-isopropyl-9,10-dihydrolysergate maleate] | 0.347 |
| COc1ccc(C(=O)COC(=O)[C@@H]2C[C@@H]3c4cccc5c4c(cn5C(C)C)C[C@H]3N(C)C2)cc1 [R^3=H R^4=H R^10=p-OCH3 maleate, p-Methoxyphenacyl 1-isopropyl-9,10-dihydrolysergate maleate] | 1.29 |
| CC(C)n1cc2c3c(cccc31)[C@H]1C[C@@H](C(=O)OCC(=O)c3ccc(Cl)cc3)CN(C)[C@@H]1C2 [R^3=H R^4=H R^10=p-Cl maleate, p-Chlorophenacyl 1-isopropyl-9,10-dihydrolysergate maleate] | 34.7 |
| CC(C)n1cc2c3c(cccc31)[C@H]1C[C@@H](C(=O)OC(C)(C)C(=O)c3ccccc3)CN(C)[C@@H]1C2 [R^3=CH3 R^4=CH3 R^10=H maleate, α,α-Dimethylphenacyl 1-isopropyl-9,10-dihydrolysergate maleate monohydrate] | 14.8 |
| CC(C)n1cc2c3c(cccc31)[C@H]1C[C@@H](C(=O)OCC(=O)c3ccc(-c4ccccc4)cc3)CN(C)[C@@H]1C2 [R^3=H R^4=H R^10=p-phenyl maleate, 4-Phenylphenacyl 1-isopropyl-9,10-dihydrolysergate maleate] | 70.8 |
| CC(C)n1cc2c3c(cccc31)[C@H]1C[C@@H](C(=O)OCC(=O)c3ccc(O)cc3)CN(C)[C@@H]1C2 [R^3=H R^4=H R^10=p-OH maleate.H2 O, p-Hydroxyphenacyl 1-isopropyl-9,10-dihydrolysergate maleate] | 0.138 |
| CC(OC(=O)[C@@H]1C[C@@H]2c3cccc4c3c(cn4C(C)C)C[C@H]2N(C)C1)C(=O)c1ccccc1 (mixture of isomers) [R^3=CH3 R^4=H R^10=H maleate, (±)-α-Methylphenacyl 1-isopropyl-9,10-dihydrolysergate maleate] | 4.57 |
